IC50 and melting point data for 19 compounds are collected here from US20110065734A1, “NOVEL BIFUNCTIONAL COMPOUNDS WHICH INHIBIT PROTEIN KINASES AND HISTONE DEACETYLASES” (4SC AG, priority 2007, published 2011).

The test system of data set [1] is A549 NSCLC cell line. Kind of data set: Cellular cytotoxicity assay (Alamar Blue), A549. The format is cell-based. As to conditions: Homo sapiens, A549; 72 h; only a range over the listed compounds is given; read-out: Cytotoxicity towards A549 NSCLC cell line IC50. The procedure: (§1) The anti-proliferative activity of the chimeric HDAC and protein kinase inhibitory chimeric compounds of the present invention was evaluated using HeLa cervical carcinoma, A549 NSCLC, SKOV3 ovarian carcinoma, Cal27 head and neck cancer, K562 chronic myeloid leukemia (CML) and EOL1 acute hypereosinophilic myeloid leukemia, cell lines. For quantification of cellular proliferation/living cells the Alamar Blue (Resazurin) cell viability assay was applied (O'Brien et al. Eur Biochem. 267, 5421-5426, 2000). In this assay Resazurin is reduced to the fluorescent resorufin by cellular dehydrogenase activity, correlating with viable, proliferating cells. The examples were dissolved as 20 mM solutions in dimethylsulfoxide (DMSO) and subsequently diluted in semi-logarithmic steps. Cell lines were seeded at respective density into 96 well flat bottom plates in a volume of 200 μl per well. 24 h after seeding 1 μl each of the compound dilutions were added into each well of the 96 well plate. Each compound dilution was tested as quadruplicates. Wells containing untreated control cells were filled with […] DMEM medium containing 0.5% v:v DMSO. The cells were then incubated with the substances for 72 h at 37° C. in a humidified atmosphere containing 5% carbon dioxide. To determine the viability of the cells, 20 μl of an Resazurin solution (Sigma; 90 mg/l) were added. After 4 h incubation at 37° C. the fluorescence was measured at an extinction of 544 nm and an emission of 590 nm. For the calculation of the cell viability the emission value from untreated cells was set as 100% viability and the emission rates of treated cells were set in relation to the values of untreated cells. Viabilities were expressed as % values. The corresponding IC50 values of the compounds for cytotoxic activity are determined from the concentration-effect curves by means of non-linear regression.

For data set [2], the target named is T1, recombinant HDAC1 isolated from HEK293 cells with heterologous HDAC1 expression (Homo sapiens, UniProt Q13547).
T1 construct: made in house
The data set is described as follows: Fluorimetric rHDAC1 activity assay. Type of data set: biochemical. As to conditions: only a range of IC50 over the compounds given; read-out: rHDAC1 inhibitory activity IC50.

The subject of data set [3] is SKOV3 ovarian carcinoma cell line. Kind of data set: Cellular cytotoxicity assay (Alamar Blue), SKOV3. The format is cell-based. The following applies: Homo sapiens, SK-OV-3; 72 h; only a range over the listed compounds is given; read-out: Cytotoxicity towards SKOV3 cell line IC50. Here is the method: as §1
Data set [4] has as its system HeLa cervical carcinoma cell line. Kind of data set: Cellular cytotoxicity assay (Alamar Blue), HeLa. The format is cell-based. As to conditions: Homo sapiens, 72 h, only a range over the listed compounds is given, read-out: Cytotoxicity towards HeLa cervical cell line IC50. The procedure:
as §1
Background: The colour change of resazurin is a common sign of viable cells or microbes.

Structures can show the parent of a compound that is named as a salt. A value given as a limit tells only on which side of the number the result lay.

T1 sequence (Q13547 whole entry): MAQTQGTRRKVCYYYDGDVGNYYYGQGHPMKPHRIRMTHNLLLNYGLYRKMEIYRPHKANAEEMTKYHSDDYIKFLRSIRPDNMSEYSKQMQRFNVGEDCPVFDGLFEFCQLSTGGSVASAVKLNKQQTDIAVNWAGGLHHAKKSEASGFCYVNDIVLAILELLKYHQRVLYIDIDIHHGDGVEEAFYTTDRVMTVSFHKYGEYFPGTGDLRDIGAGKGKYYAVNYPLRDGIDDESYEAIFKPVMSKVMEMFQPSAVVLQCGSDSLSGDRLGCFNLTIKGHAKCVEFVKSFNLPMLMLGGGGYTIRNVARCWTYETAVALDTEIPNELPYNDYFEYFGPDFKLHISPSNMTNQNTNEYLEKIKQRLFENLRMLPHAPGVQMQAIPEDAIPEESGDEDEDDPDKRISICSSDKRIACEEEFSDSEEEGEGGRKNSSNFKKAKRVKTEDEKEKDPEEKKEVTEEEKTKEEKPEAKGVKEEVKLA

In turn, `O=C(NO)c1ccc(C(=O)Nc2cccc(Nc3nc(-c4cccnc4)cs3)c2)cc1` [[17], N^1-hydroxy-N^4-(3-(4-(pyridin-3-yl)thiazol-2-ylamino)phenyl)terephthalamide] yielded a melting point of 205.5 °C. The concentration for half-maximal inhibition (IC50) in data set [1] is no less than 2.95 µM. As for `Nc1ccccc1NC(=O)CCc1ccc(-c2ccc3ncnc(Nc4ccc(OCc5cccc(F)c5)c(Cl)c4)c3c2)cc1` [[12], N-(2-aminophenyl)-3-(4-(4-(3-chloro-4-(3-fluorobenzyloxy)phenylamino)quinazolin-6-yl)phenyl)propanamide], the 50% inhibitory concentration (IC50) in data set [1] is no less than 1.1 µM; in data set [2], no less than 0.0353 µM. Consider `Nc1ccccc1NC(=O)c1ccc(C(=O)Nc2cccc(Nc3nc(-c4cccnc4)cs3)c2)cc1` (hydrate or solvate) [[18], N^1-(2-aminophenyl)-N^4-(3-(4-(pyridin-3-yl)thiazol-2-ylamino)phenyl)terephthalamide hydrate], for which the melting point is 224.8 to 224.9 °C. Turning to `Nc1ccccc1NC(=O)/C=C/c1ccc(-c2ccc3ncnc(Nc4ccc(OCc5cccc(F)c5)c(Cl)c4)c3c2)o1` [[13], (E)-N-(2-aminophenyl)-3-(5-(4-(3-chloro-4-(3-fluorobenzyloxy)phenylamino)quinazolin-6-yl)furan-2-yl)acrylamide], the half-maximal inhibitory concentration (IC50) in data set [1] was no less than 1.1 µM; in data set [2] it was no less than 0.0353 µM. `Nc1ccccc1NC(=O)c1ccc(COc2ccc3ncnc(Nc4cccc(Br)c4)c3c2)cc1` [[43], N-(2-aminophenyl)-4-((4-(3-bromophenylamino)quinazolin-6-yloxy)-methyl)benzamide]: the melting point lay within 215 to 218 °C. For the compound `Nc1ccccc1NC(=O)/C=C/c1ccc(-c2ccc3ncnc(Nc4ccc(OCc5cccc(F)c5)c(Cl)c4)c3c2)cc1` [[10], (E)-N-(2-aminophenyl)-3-(4-(4-(3-chloro-4-(3-fluorobenzyloxy)phenylamino)quinazolin-6-yl)phenyl)acrylamide], the figures for the half-inhibitory concentration (IC50) in data set [1] and in data set [2] were no less than 1.1 µM and no less than 0.0353 µM, respectively. With `Cc1ccc(NC(=O)c2ccc(C(=O)Nc3ccccc3N)cc2)cc1Nc1nc(-c2cccnc2)cs1` [[21], N^1-(2-aminophenyl)-N^4-(4-methyl-3-(4-(pyridin-3-yl)thiazol-2-ylamino)phenyl)terephthalamide], the melting point was 147.1 °C. `O=C(/C=C/c1ccc(C(=O)Nc2cccc(Nc3nc(-c4cccnc4)cs3)c2)s1)NO` [[34], (E)-5-(3-(hydroxyamino)-3-oxaprop-1-enyl)-N-(3-(4-(pyridin-3-yl)thiazol-2-ylamino)phenyl)thiophene-2-carboxamide]: the melting point stood at 205.6 °C. Further, the half-maximal inhibitory concentration (IC50) in data set [1] was no less than 2.95 µM. The compound `C#Cc1cccc(Nc2ncnc3cc(NC(=O)c4cccc(/C=C/C(=O)Nc5ccccc5N)c4)ccc23)c1` [[42], (E)-3-(3-(2-aminophenylamino)-3-oxoprop-1-enyl)-N-(4-(3-ethynylphenylamino)quinazolin-7-yl)benzamide] yielded a melting point of 190 to 194.2 °C. For the same compound, the concentration for half-maximal inhibition (IC50) in data set [2] was no less than 0.0065 µM. `O=C(/C=C/c1ccc(C(=O)Nc2cccc(Nc3nc(-c4cccnc4)cs3)c2)cc1)NO` [[22], (E)-4-(3-(hydroxyamino)-3-oxoprop-1-enyl)-N-(3-(4-(pyridin-3-yl)thiazol-2-ylamino)phenyl)benzamide] had a melting point of 100.6 °C. Further, the IC50 in data set [2] lay within 0.077 to 1.4 µM. On to `C#Cc1cccc(Nc2ncnc3ccc(NC(=O)c4ccc(C(=O)Nc5ccccc5N)cc4)cc23)c1` [[37], N-(2-Amino-phenyl)-N′-[4-(3-ethynyl-phenylamino)-quinazolin-6-yl]-terephthalamide], for which the melting point lay within 253 to 258 °C. Moreover, the IC50 in data set [1] was no less than 0.24 µM. Further, the concentration for half-maximal inhibition (IC50) in data set [3] is no less than 0.56 µM. The IC50 in data set [4] is no less than 0.5 µM.

For `C#Cc1cccc(Nc2ncnc3ccc(OCc4ccc(C(=O)Nc5ccccc5N)cc4)cc23)c1` [[44], N-(2-aminophenyl)-4-((4-(3-ethynylphenylamino)quinazolin-6-yloxy)methyl)benzamide], the half-maximal inhibitory concentration (IC50) in data set [2] is no less than 0.0065 µM. Turning to `Cc1ccc(NC(=O)c2ccc(C(=O)Nc3ccccc3N)nc2)cc1Nc1nccc(-c2cccnc2)n1` [[23], N^2-(2-aminophenyl)-N^5-(4-methyl-3-(4-(pyridin-3-yl)pyrimidin-2-ylamino)phenyl)pyridine-2,5-dicarboxamide], the melting point fell in the range of 150.5 to 152.5 °C. Take `Nc1ccccc1NC(=O)c1ccc(C(=O)Nc2cccc(Nc3nccc(-c4cccnc4)n3)c2)cc1` [[31], N-(2-Amino-phenyl)-N′-[3-(4-pyridin-3-yl-pyrimidin-2-ylamino)-phenyl]-terephthalamide]: the IC50 in data set [1] was no less than 2.95 µM.

For the compound `C#Cc1cccc(Nc2ncnc3ccc(NC(=O)c4ccc(C(=O)Nc5ccccc5N)s4)cc23)c1` [[38], Thiophene-2,5-dicarboxylic acid 2-[(2-amino-phenyl)-amide]-5-{[4-(3-ethynyl-phenylamino)-quinazolin-6-yl]-amide}], the IC50 was no less than 0.24 µM in data set [1], no less than 0.56 µM in data set [3] and no less than 0.5 µM in data set [4]. With `Nc1ccccc1NC(=O)c1ccc(C(=O)Nc2ccc(Cl)c(Nc3nccc(-c4cccnc4)n3)c2)cc1` [[32], N-(2-Amino-phenyl)-N′-[4-chloro-3-(4-pyridin-3-yl-pyrimidin-2-ylamino)-phenyl]-terephthalamide compound with hydrochloric acid], the IC50 in data set [1] was no less than 2.95 µM. Turning to `Cc1ccc(NC(=O)c2ccc(C(=O)Nc3ccccc3N)s2)cc1Nc1nc(-c2cccnc2)cs1` [[27], N^2-(2-aminophenyl)-N^5-(4-methyl-3-(4-(pyridin-3-yl)thiazol-2-ylamino)phenyl)thiophene-2,5-dicarboxamide], the melting point turned out to be 242.4 °C. `Nc1ccccc1NC(=O)c1ccc(C(=O)Nc2cccc(Nc3nc(-c4cccnc4)cs3)c2)s1` (as salt: salt) [[28], N^2-(2-aminophenyl)-N^5-(3-(4-(pyridin-3-yl)thiazol-2-ylamino)phenyl)thiophene-2,5-dicarboxamide]: the melting point came out at 222.3 °C.

On to `C#Cc1cccc(Nc2ncnc3cc(NC(=O)c4ccc(C(=O)Nc5ccccc5N)cc4)ccc23)c1` [[41], N-(2-Amino-phenyl)-N′-[4-(3-ethynyl-phenylamino)-quinazolin-7-yl]-terephthalamide], for which the IC50 in data set [3] is no less than 0.56 µM.

As usually defined, the IC50 is the midpoint of a concentration-inhibition curve. One may read the melting point as the temperature, or range, at which the solid turns liquid.
